Key:
PANDI (fall panicum) = assay: Pre-emergence herbicidal activity, warm season; format: in vivo, Panicum dichotomiflorum; conditions: GR80 = lowest tested rate (300, 100, 30, 10 g/ha) with 80% or greater inhibition; approx. 14 days after treating; 30/21° C.
Summary of the method: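 Activity is expressed as the rate giving 80% inhibition, with 300, 100, 30 and 10 g/ha typically tested. An asterisk marks activity short of 80% at the top rate. Warm-season grasses were held at 30/21 °C; cool-season blackgrass and wild buckwheat at 18/13 °C; scoring at about 14 days.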

[1] = system: AGSST (creeping bentgrass); assay: Pre-emergence herbicidal activity, cool season; format: in vivo, Agrostis stolonifera; conditions: GR80 = lowest tested rate (300, 100, 30, 10 g/ha) with 80% or greater inhibition; approx. 14 days after treating; 18/13° C.
Summary of the method: (§1)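 Seeds sown in sterilised fertilised topsoil received surface-applied compound in 50:50 acetone/water, typically at 300, 100, 30 and 10 g/ha, then greenhouse-grown at 30/21° C (warm-season species) or 18/13° C (cool-season species). Percent inhibition versus untreated plants was scored at about 14 days, giving GR80; an asterisk marks activity short of 80% at the top rate.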

AVEFA (wild oat) = assay: Pre-plant incorporated (PPI) herbicidal activity, cool season; format: in vivo, Avena fatua; conditions: for Percent inhibition AVEFA: weed, PPI application
Method: (§2) In another set of tests, the pre-plant incorporated (PPI) activity of compounds of this invention was evaluated on the same species as for the pre-emergence tests described above. In the PPI tests the following procedure, designed to simulate PPI application, was used.
(§3) A pre-prepared topsoil mixture (described above) was placed in a pot and compacted to a depth of 1.0 to 1.25 cm from the top of the pot. Seeds of each of several monocotyledonous and dicotyledonous annual plant species were placed on top of the soil. A sufficient quantity of soil to cover the seeds and level fill the pot was weighed into an open container. A known amount of the test compound was dissolved or suspended in an organic solvent and applied by spraying to this cover soil. The cover soil was thoroughly mixed to distribute the test compound throughout the cover soil, and was then applied as a cover layer over the seeds. Untreated soil was used as a cover layer for control pots. After treatment the plants were placed in a greenhouse where they received 0.64 cm of overhead irrigation. All subsequent watering consisted of a light overhead mist and/or subirrigation as needed for germination and growth. Tables 9 and 10 below relate to warm season plant species which were placed after pre-emergence treatment in a greenhouse with a 30/21° C. day/night temperature regime. Tables 11 and 12 below relates to cool season plant species placed after pre-emergence treatment in a greenhouse or growth chamber with an 18/13° C. day/night temperature regime. Only the compounds of Examples 1, 6, 8, 11, 13 and 15-20 were included in PPI tests.
(§4) Approximately 14 days after planting and treating, the plants were observed and herbicidal efficacy recorded as percent inhibition by comparison with untreated plants.

BROTE (downy brome) = assay: as above; format: in vivo, Bromus tectorum; conditions: for Percent inhibition BROTE: weed, PPI application
Method: as §2, §3, §4

ALOMY (blackgrass) = assay: as above; format: in vivo, Alopecurus myosuroides; conditions: for Percent inhibition ALOMY: weed, PPI application
Method: as §2, §3, §4

SINAR (wild mustard) = assay: as above; format: in vivo, Sinapis arvensis; conditions: for Percent inhibition SINAR: weed, PPI application
Method: as §2, §3, §4

corn (ZEAMX) = assay: Selectivity test, PPI, warm season crop; format: in vivo, Zea mays; conditions: PPI application
Method: as §3, §4
Additional pre-emergence and PPI tests were conducted by the procedures described above, on warm and cool season weed species in the presence of crop species, to assess herbicidal selectivity. Crop species included in warm season tests were corn (Zea mays, ZEAMX), rice (Oryza sativa, ORYSA) and soybean (Glycine max, GLYMX). Crop species included in cool season tests were wheat (Triticum aestivum, TRZAW), barley (Hordeunm vulgare, HORVX) and oilseed rape (Brassica napus, BRSNS).
Tables 15 and 16 relate to pre-emergence and PPI tests respectively on warm season species. Table 17 relates to pre-emergence tests on cool season species.

POLCO (wild buckwheat) = assay: Pre-emergence herbicidal activity, cool season; format: in vivo, Polygonum convolvulus; conditions: lowest tested rate with 80% or greater inhibition; rates 300, 100, 30, 10 g/ha; about 14 days
Summary of the method: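 Herbicidal efficacy was judged visually as percent inhibition compared with untreated plants some 14 days after treatment, giving GR80 over doses of 10 to 300 g/ha. Proso millet and crabgrass grew at 30/21 °C; blackgrass and wild buckwheat grew at 18/13 °C.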

[2] = system: BRAPP (broadleaf signalgrass); assay: Pre-plant incorporated (PPI) herbicidal activity, warm season; format: in vivo, Brachiaria platyphylla; conditions: for Percent inhibition BRAPP: PPI application
Method: as §2, §3, §4

STEME (common chickweed) = assay: Pre-emergence herbicidal activity, cool season; format: in vivo, Stellaria media; conditions: lowest tested rate with 80% or greater inhibition; rates 300, 100, 30, 10 g/ha; about 14 days
Summary of the method: as §1

[3] = pre-plant incorporated, lowest tested rate with 80% or greater inhibition, about 14 days

SMILES | Pre-emergence activity (GR80) PANDI (PANDI (fall panicum)) [g/ha] | Pre-emergence activity (GR80) AGSST [1] [g/ha] | Percent inhibition AVEFA (AVEFA (wild oat); 30 g/ha) [%] | Percent inhibition AVEFA (AVEFA (wild oat); 100 g/ha) [%] | Percent inhibition AVEFA (AVEFA (wild oat); 300 g/ha) [%] | Percent inhibition AVEFA (AVEFA (wild oat); 900 g/ha) [%] | Percent inhibition BROTE (BROTE (downy brome); 30 g/ha) [%] | Percent inhibition BROTE (BROTE (downy brome); 100 g/ha) [%] | Percent inhibition BROTE (BROTE (downy brome); 300 g/ha) [%] | Percent inhibition BROTE (BROTE (downy brome); 900 g/ha) [%] | Percent inhibition ALOMY (ALOMY (blackgrass); 30 g/ha) [%] | Percent inhibition ALOMY (ALOMY (blackgrass); 100 g/ha) [%] | Percent inhibition ALOMY (ALOMY (blackgrass); 300 g/ha) [%] | Percent inhibition ALOMY (ALOMY (blackgrass); 900 g/ha) [%] | Percent inhibition SINAR (SINAR (wild mustard); 30 g/ha) [%] | Percent inhibition SINAR (SINAR (wild mustard); 100 g/ha) [%] | Percent inhibition SINAR (SINAR (wild mustard); 300 g/ha) [%] | Percent inhibition SINAR (SINAR (wild mustard); 900 g/ha) [%] | Percent inhibition ZEAMX (corn (ZEAMX); 30 g/ha) [%] | Percent inhibition ZEAMX (corn (ZEAMX); 100 g/ha) [%] | further results
CCN(CC)C(=O)n1cnc(S(=O)(=O)C(F)(F)C(F)F)n1 [Example 16] | 100 | 30 | 0 | 0 | 80 | 90 | 0 | 35 | 40 | 90 | 95 | 100 | 100 | 100 | 50 | 100 | 100 | 100 | 5 | 20 | PPI activity GR80, AVEFA (AVEFA (wild oat); [3]): 300 g/ha; Percent inhibition AVEFA (AVEFA (wild oat); 10 g/ha): 0%; PPI activity GR80, BROTE (BROTE (downy brome); [3]): 300 g/ha; Percent inhibition BROTE (BROTE (downy brome); 10 g/ha): 0%; PPI activity GR80, ALOMY (ALOMY (blackgrass); [3]): 30 g/ha; Percent inhibition ALOMY (ALOMY (blackgrass); 10 g/ha): 40%; PPI activity GR80, SINAR (SINAR (wild mustard); [3]): 10 g/ha; Percent inhibition SINAR (SINAR (wild mustard); 10 g/ha): 0%; Percent inhibition ZEAMX (corn (ZEAMX); 10 g/ha): 0%; Percent inhibition ZEAMX (corn (ZEAMX); 300 g/ha): 40%; Percent inhibition ZEAMX (corn (ZEAMX); 900 g/ha): 80%; Pre-emergence activity GR80, POLCO (POLCO (wild buckwheat)): [empty]; Percent inhibition BRAPP ([2]; 10 g/ha): 20%; Percent inhibition BRAPP ([2]; 30 g/ha): 60%; Percent inhibition BRAPP ([2]; 100 g/ha): 100%; Percent inhibition BRAPP ([2]; 300 g/ha): 100%; Percent inhibition BRAPP ([2]; 900 g/ha): 100%; PPI activity GR80, BRAPP [2, 3]: 10 g/ha; Pre-emergence activity GR80, STEME (STEME (common chickweed)): 300 g/ha
CCN(CC)C(=O)n1cnc(S(=O)(=O)C(F)(F)Cl)n1 [Example 3] | 100 | 30 | 20 | 40 | 100 | 80 | 0 | 30 | 90 | 95 | 60 | 90 | 99 | 100 | 100 | 100 | 100 | 100 | 5 | 10 | Percent inhibition ZEAMX (corn (ZEAMX); 300 g/ha): 30%; Percent inhibition ZEAMX (corn (ZEAMX); 900 g/ha): 55%; Pre-emergence activity GR80, POLCO (POLCO (wild buckwheat)): [empty]; Percent inhibition BRAPP ([2]; 30 g/ha): 30%; Percent inhibition BRAPP ([2]; 100 g/ha): 100%; Percent inhibition BRAPP ([2]; 300 g/ha): 100%; Percent inhibition BRAPP ([2]; 900 g/ha): 90%; Pre-emergence activity GR80, STEME (STEME (common chickweed)): 30 g/ha
